Measurements reported in US3984410A, “Isourea acetylphosphate insecticides” (priority 1975, dated 1976).

How the values were obtained:
Assay type in all cases: in vivo
[1] = tested on: Lygus Bug [Lygus hesperus (Knight)]; assay: Lygus Bug spray; conditions: spray on adult bugs; mortality after 48 hours
Method: Test compounds are in a 50--50 acetone-water solution. Two cc of the solutions are sprayed through a Devilbiss type EGA hand spray gun into circular cardboard cages containing one string bean pod and ten adult lygus bugs. The test cages are covered on the bottom with cellophane and the top with tulle netting. Percent mortality is recorded 48 hours later. Test concentrations range from 0.05% down to that at which approximately 50% mortality occurs.

[2] = tested on: Black Bean Aphid [Aphis fabae (Scop.)]; assay: Systemic Assay on Black Bean Aphid; conditions: 168 h, systemic, chemical in soil, mortality after 7 days, read-out: Insecticide Activity - Approximate LD50, BAS (Black Bean Aphid - systemic)
Method: Test chemicals are diluted in acetone and aliquots are thoroughly mixed into 500 grams of dry, sandy loam soil. The treated soil is placed in a pint ice cream carton and a nasturtium plant (Tropaeolum sp.) approximately 5 cm tall is transplanted into each carton. The plants are then infested with approximately 25 black bean aphids of mixed ages and placed in the greenhouse. Seven days later mortality is recorded. Test concentrations range from 10 PPM down to that at which approximately 50% mortality occurs.

[3] = tested on: Southern House Mosquito [Culex pipiens quinquefasciatus (Say)]; assay: Southern House Mosquito larvae in aqueous solution; conditions: 48 h, read-out: Insecticide Activity - Approximate LD50, MOS (Southern House Mosquito)
Method: Insecticidal activity is determined using third-instar larvae of the mosquito (Culex pipiens quinquefasciatus). Ten larvae are placed in a 6-ounce, number 67 Dixie wax paper cup containing 100 ml of an aqueous solution of the test chemical. The treated larvae are stored at 70°F, and 48 hours later the mortality is recorded. Test concentrations range from 0.5 PPM down to that at which approximately 50% mortality occurs.

[4] = tested on: Cabbage Looper [Trichoplusia ni (Hubner)]; assay: Cabbage Looper on dipped squash cotyledons; conditions: second-instar larvae, cotyledon dip; 48 hours plus 5 days
Method: (§1) Test compounds are diluted in a 50--50 acetone-water solution. Cotyledons of hyzini squash (Calabacita abobrinha), approximately 1 × 1.5 inches, are immersed in the test solutions for 2-3 seconds and placed on a wire screen to dry. The dried leaves are placed in petri dishes containing a moistened piece of filter paper and infested with five second-instar cabbage looper larvae. Mortality of the larvae is recorded 48 hours later, and a piece of synthetic media is added to dishes containing survivors. These are then held for 5 additional days to observe for any delayed effects of the test chemicals. Test concentrations range from 0.1% down to that at which approximately 50% mortality occurs.

[5] = tested on: Green Peach Aphid [Myzus persicae (Sulzer)]; assay: Green Peach Aphid spray on radish plants; conditions: sprayed to runoff on radish plants; mortality after 48 hours
Method: Radish plants (Rhaphanus sativus), approximately 2 cm tall, are transplanted into sandy loam soil in 3-inch clay pots and infested with 25-50 green peach aphids of mixed ages. Twenty-four hours later they are sprayed, to the point of runoff, with 50--50 acetone-water solutions of the test chemicals. Treated plants are held in the greenhouse and mortality is recorded after 48 hours. Test concentrations range from 0.05% down to that at which 50% mortality occurs.

[6] = tested on: Tobacco Budworm [Heliothis virescens (F.)]; assay: Tobacco Budworm on dipped Romaine lettuce leaves; conditions: larvae, Romaine lettuce leaf dip; 48 hours plus 5 days
Method: as §1
The procedure is the same as that used for the cabbage looper, except that sections of Romaine lettuce (Latica sativa) leaves were used instead of cotyledons of hyzini squash.

[7] = tested on: Black Bean Aphid [Aphis fabae (Scop.)]; assay: Direct Spray Assay on Black Bean Aphid; conditions: direct spray on nasturtium plants; mortality after 7 days
Method: Nasturtium plants (Tropaeolum sp.), approximately 5 cm tall, are transplanted into sandy loam soil in 3-inch clay pots and infested with 25-50 black bean aphids of mixed ages. Twenty-four hours later they are sprayed, to the point of runoff, with 50--50 acetone-water solutions of the test chemicals. Treated plants are held in the greenhouse and mortality is recorded after 7 days. Test concentrations range from 0.05% down to that at which 50% mortality occurs.

[8] = tested on: housefly (Musca domestica L.); assay: Housefly mortality, residue on aluminum dishes; conditions: 25 3-day old female houseflies; mortality after 48 hours
Method: Test compounds are diluted in acetone and aliquots are pipetted onto the bottom of 55 × 15 mm aluminum dishes. To insure even spreading of the chemical on the bottom of the dishes, 1 ml of acetone containing 0.02% peanut oil is also added to each dish. After all solvents have evaporated the dishes are placed in circular cardboard cages containing 25 3-day old female houseflies. The cages are covered on the bottom with cellophane and the top with tulle netting, and each contains a sugar-water saturated cotton plug for maintenance of the flies. Mortality is recorded after 48 hours. Test levels range from 100 μg/25 F. houseflies down to that at which approximately 50% mortality occurs.

[9] = tested on: German Cockroach [Blattella germanica (Linne)]; assay: German Cockroach spray; conditions: spray on 1-month-old nymphs; mortality after 7 days
Method: Test compounds are diluted in a 50--50 acetone-water solution. Two cc of the solutions are sprayed through a DeVilbiss type EGA hand spray gun into circular cardboard cages containing 10 l-month-old German cockroach nymphs. The test cages are covered on the bottom with cellophane and the top with tulle netting. Percent mortality is recorded 7 days later. Test concentrations range from 0.1% down to that at which approximately 50% mortality occurs.

## CCN(C(=NC(=O)CSP(=S)(OC)OC)OC)c1cccc(C)c1 [Compound 19]
[1]
  Insecticide Activity - Approximate LD50, LB (Lygus Bug): > .05%
[2]
  LC50: > 10 µg/mL
[3]
  LC50: > 1 µg/mL
[4]
  Insecticide Activity - Approximate LD50, CL (Cabbage Looper): > .1%
[5]
  Insecticide Activity - Approximate LD50, GPA (Green Peach Aphid): .03%
[6]
  Insecticide Activity - Approximate LD50, TBW (Tobacco Budworm): > .1%
[7]
  Insecticide Activity - Approximate LD50, BA (Black Bean Aphid - direct spray): .002%
[8]
  Insecticide Activity - Approximate LD50, HF (Housefly): 62 μg/25 F.
[9]
  Insecticide Activity - Approximate LD50, GR (German Cockroach): > .1%
